Test results taken from article PMC10866072, “Design, synthesis, molecular modelling and biological evaluation of novel 6-amino-5-cyano-2-thiopyrimidine derivatives as potent anticancer agents against leukemia and apoptotic inducers” (Journal of Enzyme Inhibition and Medicinal Chemistry, 2024).

What was measured:
SF-268 = format: cell-based; conditions: Homo sapiens, one dose 10^-5 M, 48 h, read-out: % growth
NCI-H460 = format: cell-based; conditions: Homo sapiens, one dose 10^-5 M, 48 h, read-out: % growth
A549/ATCC = format: cell-based; conditions: Homo sapiens, one dose 10^-5 M, 48 h
RXF 393 = format: cell-based; conditions: Homo sapiens, RXF 393, 48 h, one dose 10^-5 M, 48 h, read-out: % growth
MDA-MB-435 = format: cell-based; conditions: Homo sapiens, one dose 10^-5 M, 48 h, read-out: % growth
SK-MEL-28 = format: cell-based; conditions: Homo sapiens, one dose 10^-5 M, 48 h
TK-10 = format: cell-based; conditions: Homo sapiens, one dose 10^-5 M, 48 h
NCI-H226 = format: cell-based; conditions: one dose 10^-5 M, 48 h; for % growth at 10 µM: Homo sapiens
MCF7 = format: cell-based; conditions: Homo sapiens, one dose 10^-5 M, 48 h, read-out: % growth
MDA-MB-231/ATCC = format: cell-based; conditions: Homo sapiens, one dose 10^-5 M, 48 h
OVCAR-4 = format: cell-based; conditions: Homo sapiens, one dose 10^-5 M, 48 h
SW-620 = format: cell-based; conditions: Homo sapiens, one dose 10^-5 M, 48 h
MOLT-4 = format: cell-based; conditions: Homo sapiens, one dose 10^-5 M, 48 h, read-out: % growth
U251 = format: cell-based; conditions: Homo sapiens, U-251, one dose 10^-5 M, 48 h
SK-MEL-2 = format: cell-based; conditions: Homo sapiens, one dose 10^-5 M, 48 h
K-562 = format: cell-based; conditions: Homo sapiens, K562, one dose 10^-5 M, 48 h
HCT-116 = format: cell-based; conditions: Homo sapiens, one dose 10^-5 M, 48 h, read-out: % growth
HCT-15 = format: cell-based; conditions: Homo sapiens, one dose 10^-5 M, 48 h, read-out: % growth
OVCAR-8 = format: cell-based; conditions: Homo sapiens, one dose 10^-5 M, 48 h
KM12 = format: cell-based; conditions: Homo sapiens, one dose 10^-5 M, 48 h
SK-OV-3 = format: cell-based; conditions: Homo sapiens, one dose 10^-5 M, 48 h
SF-295 = format: cell-based; conditions: Homo sapiens, one dose 10^-5 M, 48 h
MALME-3M = format: cell-based; conditions: Homo sapiens, one dose 10^-5 M, 48 h
SF-539 = format: cell-based; conditions: Homo sapiens, one dose 10^-5 M, 48 h
LOX IMVI = format: cell-based; conditions: Homo sapiens, one dose 10^-5 M, 48 h, read-out: % growth
SNB-19 = format: cell-based; conditions: Homo sapiens, one dose 10^-5 M, 48 h, read-out: % growth
HOP-92 = format: cell-based; conditions: one dose 10^-5 M, 48 h; for % growth at 10 µM: Homo sapiens
SR = format: cell-based; conditions: Homo sapiens, one dose 10^-5 M, 48 h
UACC-62 = format: cell-based; conditions: Homo sapiens, one dose 10^-5 M, 48 h
M14 = format: cell-based; conditions: Homo sapiens, one dose 10^-5 M, 48 h
CAKI-1 = format: cell-based; conditions: Homo sapiens, CAKI-1, 48 h, one dose 10^-5 M, 48 h
HCC-2998 = format: cell-based; conditions: Homo sapiens, one dose 10^-5 M, 48 h
T-47D = format: cell-based; conditions: Homo sapiens, T47D, one dose 10^-5 M, 48 h, read-out: % growth
SNB-75 = format: cell-based; conditions: one dose 10^-5 M, 48 h; for % growth at 10 µM: Homo sapiens
UO-31 = format: cell-based; conditions: Homo sapiens, UO-31, 48 h, one dose 10^-5 M, 48 h
[1] = tested on: full NCI 60 cell lines panel; conditions: for activity at 10 µM: Homo sapiens, 60 cell, 48 h, read-out: Mean % growth
SN12C = format: cell-based, human; conditions: Homo sapiens, one dose 10^-5 M, 48 h
NCI-H522 = format: cell-based; conditions: Homo sapiens, one dose 10^-5 M, 48 h
OVCAR-5 = format: cell-based; conditions: Homo sapiens, one dose 10^-5 M, 48 h
SK-MEL-5 = format: cell-based; conditions: Homo sapiens, one dose 10^-5 M, 48 h, read-out: % growth
HS 578T = format: cell-based; conditions: one dose 10^-5 M, 48 h, HS 578T; for activity at 10 µM: Homo sapiens, read-out: % growth
OVCAR-3 = format: cell-based; conditions: Homo sapiens, one dose 10^-5 M, 48 h
HL-60(TB) = format: cell-based; conditions: Homo sapiens, one dose 10^-5 M, 48 h
A498 = format: cell-based; conditions: Homo sapiens, one dose 10^-5 M, 48 h
HT29 = format: cell-based; conditions: Homo sapiens, HT-29, one dose 10^-5 M, 48 h
ACHN = format: cell-based; conditions: Homo sapiens, one dose 10^-5 M, 48 h
PC-3 = format: cell-based; conditions: Homo sapiens, one dose 10^-5 M, 48 h
CCRF-CEM = format: cell-based; conditions: Homo sapiens, one dose 10^-5 M, 48 h
EKVX = format: cell-based; conditions: Homo sapiens, one dose 10^-5 M, 48 h
MDA-MB-468 = format: cell-based; conditions: Homo sapiens, one dose 10^-5 M, 48 h
RPMI-8226 = format: cell-based; conditions: Homo sapiens, one dose 10^-5 M, 48 h
NCI-H23 = format: cell-based; conditions: Homo sapiens, one dose 10^-5 M, 48 h, read-out: % growth
786-0 = format: cell-based; conditions: Homo sapiens, one dose 10^-5 M, 48 h
IGROV1 = format: cell-based; conditions: Homo sapiens, IGROV-1, one dose 10^-5 M, 48 h, read-out: % growth
UACC-257 = format: cell-based; conditions: Homo sapiens, one dose 10^-5 M, 48 h
HOP-62 = format: cell-based; conditions: Homo sapiens, one dose 10^-5 M, 48 h
DU-145 = format: cell-based; conditions: Homo sapiens, one dose 10^-5 M, 48 h

N#Cc1c(N)nc(S)nc1-c1ccc(Cl)cc1 [Compound 1b]
activity at 10 µM (SF-268): 69.7% | activity at 10 µM (NCI-H460): 86.7% | % growth at 10 µM (A549/ATCC): 86% | activity at 10 µM (RXF 393): 55.5% | activity at 10 µM (MDA-MB-435): 86.5% | % cell growth at 10 µM (SK-MEL-28): 95.6% | % cell growth at 10 µM (TK-10): 126% | % growth at 10 µM (NCI-H226): 78.7% | activity at 10 µM (MCF7): 67.7% | % growth at 10 µM (MDA-MB-231/ATCC): 53.7% | % growth at 10 µM (OVCAR-4): 76.2% | % growth at 10 µM (SW-620): 87.3% | activity at 10 µM (MOLT-4): 50.7% | % growth at 10 µM (U251): 81.6% | % growth at 10 µM (SK-MEL-2): 96.5% | % growth at 10 µM (K-562): 68.1% | activity at 10 µM (HCT-116): 76.5% | activity at 10 µM (HCT-15): 86% | % growth of cells at 10 µM (OVCAR-8): 82.2% | % growth at 10 µM (KM12): 82% | % growth at 10 µM (SK-OV-3): 84.3% | % cell growth at 10 µM (SF-295): 76.2% | % growth at 10 µM (MALME-3M): 99.6% | % growth at 10 µM (SF-539): 71.9% | activity at 10 µM (LOX IMVI): 79.2% | activity at 10 µM (SNB-19): 60.4% | % growth at 10 µM (HOP-92): 43.5% | percent cell growth at 10 µM (SR): 66.9% | % growth at 10 µM (UACC-62): 66.8% | % growth at 10 µM (M14): 99.9% | % growth at 10 µM (CAKI-1): 52% | % growth at 10 µM (HCC-2998): 99.6% | activity at 10 µM (T-47D): 58.3% | % growth at 10 µM (SNB-75): 42.2% | % cell growth at 10 µM (UO-31): 45.4% | activity at 10 µM [1]: 75.7% | % growth at 10 µM (SN12C): 75.7% | % growth at 10 µM (NCI-H522): 58.7% | percent cell growth at 10 µM (OVCAR-5): 91.6% | activity at 10 µM (SK-MEL-5): 85.9% | activity at 10 µM (HS 578T): 74% | % growth at 10 µM (OVCAR-3): 93.4% | % growth at 10 µM (HL-60(TB)): 69.6% | % growth at 10 µM (A498): 77.4% | % growth at 10 µM (HT29): 91.1% | % growth at 10 µM (ACHN): 77.2% | percent cell growth at 10 µM (PC-3): 56.4% | % cell growth at 10 µM (CCRF-CEM): 65.5% | % cell growth at 10 µM (EKVX): 61% | percent cell growth at 10 µM (MDA-MB-468): 81.1% | % growth at 10 µM (RPMI-8226): 47.2% | activity at 10 µM (NCI-H23): 85.5% | % growth at 10 µM (786-0): 85% | activity at 10 µM (IGROV1): 57.9% | percent cell growth at 10 µM (UACC-257): 102% | % growth at 10 µM (HOP-62): 74.6% | % growth at 10 µM (DU-145): 86.8%

N=C(NN=Cc1ccccc1)c1c(N)nc(S)nc1-c1ccc(Cl)cc1 [Compound 4g, 4-amino-6–(4-chlorophenyl)-2-mercapto-N'-[phenylmethylene]pyrimidine-5-carboximido hydrazide]
activity at 10 µM (SF-268): 49.3% | activity at 10 µM (NCI-H460): 16.5% | % growth at 10 µM (A549/ATCC): 31.6% | activity at 10 µM (RXF 393): 8.96% | activity at 10 µM (MDA-MB-435): 77.3% | % cell growth at 10 µM (SK-MEL-28): 88.5% | % cell growth at 10 µM (TK-10): 93.9% | % growth at 10 µM (NCI-H226): -0.68% | % growth (NCI-H226): -0.68% | activity at 10 µM (MCF7): 42.2% | % growth at 10 µM (MDA-MB-231/ATCC): 1.22% | % growth at 10 µM (OVCAR-4): 37.5% | % growth at 10 µM (SW-620): 76.3% | activity at 10 µM (MOLT-4): 58.5% | % growth at 10 µM (U251): 13.2% | % growth at 10 µM (SK-MEL-2): 92.7% | % growth at 10 µM (K-562): 52.4% | activity at 10 µM (HCT-116): 30.6% | activity at 10 µM (HCT-15): 53.1% | % growth of cells at 10 µM (OVCAR-8): 20.4% | % growth at 10 µM (KM12): 62.3% | % growth at 10 µM (SK-OV-3): 81% | % cell growth at 10 µM (SF-295): 35.6% | % growth at 10 µM (MALME-3M): 52.1% | % growth at 10 µM (SF-539): 11.4% | activity at 10 µM (LOX IMVI): 22.6% | activity at 10 µM (SNB-19): 59.8% | % growth at 10 µM (HOP-92): -0.44% | % growth (HOP-92): -0.44% | percent cell growth at 10 µM (SR): 46.4% | % growth at 10 µM (UACC-62): 78.1% | % growth at 10 µM (M14): 70.6% | % growth at 10 µM (CAKI-1): 31.2% | % growth at 10 µM (HCC-2998): 93.1% | activity at 10 µM (T-47D): 49.4% | % growth at 10 µM (SNB-75): -34.3% | % growth (SNB-75): -34.30% | % cell growth at 10 µM (UO-31): 29.4% | activity at 10 µM [1]: 50.8% | % growth values, cell lines with lethal effect ([1]; one dose, range over those cell lines): −0.44%to-34.30 | % growth at 10 µM (SN12C): 73.9% | % growth at 10 µM (NCI-H522): 56.4% | percent cell growth at 10 µM (OVCAR-5): 80.1% | activity at 10 µM (SK-MEL-5): 84.9% | activity at 10 µM (HS 578T): -6.98% | % growth (HS 578T): -6.98% | % growth at 10 µM (OVCAR-3): 77.7% | % growth at 10 µM (HL-60(TB)): 97% | % growth at 10 µM (A498): 105% | % growth at 10 µM (HT29): 78.5% | % growth at 10 µM (ACHN): 23.3% | percent cell growth at 10 µM (PC-3): 52.6% | % cell growth at 10 µM (CCRF-CEM): 65% | % cell growth at 10 µM (EKVX): 52.9% | percent cell growth at 10 µM (MDA-MB-468): 49.7% | % growth at 10 µM (RPMI-8226): 51.4% | activity at 10 µM (NCI-H23): 64.3% | % growth at 10 µM (786-0): 41.7% | activity at 10 µM (IGROV1): 62.6% | percent cell growth at 10 µM (UACC-257): 92.8% | % growth at 10 µM (HOP-62): 30.2% | % growth at 10 µM (DU-145): 48.7%
